Some test systems named below: SNB-75 CNS; SK-MEL-28 melanoma; OVCAR-5 ovarian; A549 NSCLC; SF-295 CNS; NCI-H522 lung; ACHN renal; SR leukemia; SK-MEL-2 melanoma; MDA-MB-231 breast.
What all share (assay): growth of human tumour cells (NCI), 48 h

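Briefly, cells in 96-well plates were exposed to five compound concentrations for 48 h, and endpoints were estimated by linear interpolation. Abbreviation: GI50, concentration required for 50% inhibition of growth. TGI denotes the concentration required for complete inhibition of growth.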

Consider `O=C(O)CSc1cc(NS(=O)(=O)c2ccc(Br)cc2)c2ccccc2c1O`, for which the GI50 was 24 µM in the experiment with SNB-75 CNS; 14.5 µM in the experiment with SK-MEL-28 melanoma; 21.6 µM in the experiment with OVCAR-5 ovarian; 22.8 µM in the experiment on A549 NSCLC; 16 µM in the experiment on SF-295 CNS; 16.2 µM with NCI-H522 lung. For the same compound, the GI50 is 12.8 µM in the experiment on ACHN renal, 17.8 µM in the experiment on SR leukemia, 9.92 µM in the experiment with SK-MEL-2 melanoma and 2.72 µM in the experiment with MDA-MB-231 breast. The TGI stood at 42.4 µM with SNB-75 CNS; 29 µM in the experiment with SK-MEL-28 melanoma; 47.1 µM in the experiment with OVCAR-5 ovarian; 42.6 µM in the experiment with A549 NSCLC; 30.1 µM in the experiment on SF-295 CNS; 33.7 µM with NCI-H522 lung. The TGI with ACHN renal was 26.6 µM; with SR leukemia, more than 68.1 µM; in the experiment with SK-MEL-2 melanoma, 28.6 µM; with MDA-MB-231 breast, 8.08 µM.

Take `FC(F)(F)c1cccc(CNC2CCN(CCc3ccccc3)CC2)c1`: the GI50 with SNB-75 CNS is 11.7 µM; with SK-MEL-28 melanoma, 16 µM; with OVCAR-5 ovarian it was 27.2 µM; in the experiment with A549 NSCLC it was 40.3 µM; in the experiment with SF-295 CNS, 17.2 µM; with NCI-H522 lung it was 20.9 µM. The GI50 in the experiment with ACHN renal was 33.2 µM; with SR leukemia, 15.1 µM; in the experiment with SK-MEL-2 melanoma it was 23.5 µM; in the experiment on MDA-MB-231 breast it was 12.6 µM. The TGI with SNB-75 CNS was 33.6 µM; in the experiment with SK-MEL-28 melanoma, 31.7 µM; in the experiment on OVCAR-5 ovarian, more than 100 µM; in the experiment with A549 NSCLC, more than 100 µM; with SF-295 CNS it was 35.4 µM; with NCI-H522 lung, 44.4 µM. In addition, the TGI with ACHN renal was more than 100 µM; with SR leukemia, 41.6 µM; in the experiment on SK-MEL-2 melanoma, 47.2 µM; in the experiment with MDA-MB-231 breast it was 35.2 µM.

As to `CN(C)c1ccc(/C=N/N=C(\C#N)[S][Sn]([Cl])([c]2ccccc2)[c]2ccccc2)cc1`, the GI50 in the experiment on SNB-75 CNS was 1.07 µM; in the experiment on SK-MEL-28 melanoma, 1.48 µM; in the experiment with OVCAR-5 ovarian, 1.59 µM; with A549 NSCLC it was 2.84 µM; in the experiment with SF-295 CNS, 2.29 µM; with NCI-H522 lung it was 0.127 µM. In addition, the GI50 is 1.72 µM in the experiment with ACHN renal, 1.57 µM in the experiment on SR leukemia, 1.74 µM with SK-MEL-2 melanoma and 1.54 µM with MDA-MB-231 breast. The TGI in the experiment on SNB-75 CNS amounted to 2.36 µM; with SK-MEL-28 melanoma, 2.93 µM; with OVCAR-5 ovarian, 3.24 µM; with A549 NSCLC, 9.05 µM; in the experiment with SF-295 CNS, 5.48 µM; with NCI-H522 lung, 0.369 µM. In addition, the TGI in the experiment with ACHN renal worked out at 3.2 µM; with SR leukemia, 8.57 µM; in the experiment on SK-MEL-2 melanoma it was 3.43 µM; in the experiment with MDA-MB-231 breast, 3.19 µM.

For the compound `O=C1[C@H](Cc2ccc(O)cc2)N2C(=O)CCN(C(=O)NCc3ccccc3)[C@H]2CN1Cc1cccc2ccccc12`, the GI50 is 0.399 µM in the experiment on SNB-75 CNS; 0.79 µM in the experiment on SK-MEL-28 melanoma; 1.72 µM with OVCAR-5 ovarian; 2.66 µM in the experiment with A549 NSCLC; 3.22 µM with SF-295 CNS; 0.901 µM in the experiment with NCI-H522 lung. The GI50 in the experiment with ACHN renal was 4.73 µM; in the experiment on SR leukemia, 3.19 µM; with SK-MEL-2 melanoma, 2.64 µM; in the experiment with MDA-MB-231 breast, 0.605 µM. Further, the TGI in the experiment on SNB-75 CNS was 25.3 µM; in the experiment with SK-MEL-28 melanoma, 9.63 µM; with OVCAR-5 ovarian, 29.1 µM; in the experiment with A549 NSCLC it was more than 50.6 µM; in the experiment on SF-295 CNS it was 17.6 µM; in the experiment on NCI-H522 lung, 12 µM. The TGI is 57.7 µM in the experiment on ACHN renal, more than 54.1 µM in the experiment on SR leukemia, 9.18 µM in the experiment with SK-MEL-2 melanoma and 3.6 µM in the experiment with MDA-MB-231 breast.

With `COc1cc2c(cc1OCCN1CCN(CCN3C(=O)c4cccc5cccc(c45)C3=O)CC1)N=C[C@@H]1CCCN1C2=O`, the GI50 in the experiment on SNB-75 CNS is 20.4 µM; in the experiment on SK-MEL-28 melanoma, 32.5 µM; with OVCAR-5 ovarian it was 19 µM; in the experiment with A549 NSCLC it was 18.7 µM; with SF-295 CNS, 22.9 µM; in the experiment on NCI-H522 lung it was 18.8 µM. Besides, the GI50 in the experiment on ACHN renal is 17.2 µM; with SR leukemia, 19.7 µM; with SK-MEL-2 melanoma, 24.6 µM; in the experiment on MDA-MB-231 breast, 19.9 µM. The TGI in the experiment with SNB-75 CNS came to 37.5 µM; in the experiment on SK-MEL-28 melanoma, 77.7 µM; with OVCAR-5 ovarian, 35 µM; in the experiment on A549 NSCLC, 47.3 µM; in the experiment on SF-295 CNS, 41.1 µM; with NCI-H522 lung, 34.8 µM. The TGI with ACHN renal was found to be 31.5 µM; in the experiment on SR leukemia, 41.8 µM; in the experiment with SK-MEL-2 melanoma it was 51.1 µM; with MDA-MB-231 breast, 39.8 µM.

For `OCc1ccc(N2CCc3ccc(F)cc3C2)cc1Cl`, the GI50 in the experiment on SNB-75 CNS is 11.5 µM; with SK-MEL-28 melanoma it was 13.1 µM; in the experiment on OVCAR-5 ovarian, 0.0301 µM; in the experiment with A549 NSCLC it was 0.516 µM; with SF-295 CNS, 0.0728 µM; with NCI-H522 lung, 12.6 µM. For the same compound, the GI50 in the experiment on ACHN renal is 10.4 µM; in the experiment on SR leukemia, 2.9 µM; in the experiment with SK-MEL-2 melanoma, 0.226 µM; in the experiment with MDA-MB-231 breast, 11.7 µM. Moreover, the TGI with SNB-75 CNS was 25.3 µM; with SK-MEL-28 melanoma, 26.1 µM; in the experiment with OVCAR-5 ovarian it was 0.183 µM; in the experiment on A549 NSCLC, 19.8 µM; in the experiment with SF-295 CNS it was 1.96 µM; with NCI-H522 lung, 26.2 µM. The TGI in the experiment with ACHN renal turned out to be 23 µM; with SR leukemia, 17.3 µM; with SK-MEL-2 melanoma, 8.79 µM; with MDA-MB-231 breast it was 24.9 µM.

For `O=C1NC(=NCc2cccs2)O/C1=C\c1ccc2ncccc2c1`, the GI50 with SNB-75 CNS is 1.72 µM; in the experiment on SK-MEL-28 melanoma, 5.87 µM; in the experiment with OVCAR-5 ovarian it was 6.58 µM; with A549 NSCLC it was 4.46 µM; in the experiment on SF-295 CNS, 5.03 µM; in the experiment on NCI-H522 lung, 2 µM. For the same compound, the GI50 in the experiment on ACHN renal was 4.07 µM; with SR leukemia it was 2.58 µM; in the experiment on SK-MEL-2 melanoma, 4.2 µM; in the experiment with MDA-MB-231 breast, 8.23 µM. The TGI in the experiment with SNB-75 CNS was found to be 8.08 µM; with SK-MEL-28 melanoma, 18 µM; in the experiment with OVCAR-5 ovarian, 23.9 µM; with A549 NSCLC, 12.5 µM; with SF-295 CNS, 15.9 µM; in the experiment with NCI-H522 lung it was 8.34 µM. The TGI in the experiment with ACHN renal is 21.5 µM; in the experiment with SR leukemia, 10.7 µM; in the experiment with SK-MEL-2 melanoma it was 9.82 µM; in the experiment with MDA-MB-231 breast, more than 25 µM.

For the origin of these results see PubChem BioAssay (NCI).
